Laboratory results: patent publication US20250313535A1, “ALPHA 4 BETA 7 INTEGRIN MODULATORS AND USES THEREOF” (DICE MOLECULES SV, INC., priority 2022, published 2025)
pIC50: −log10 of the molar value.

Assays:
[1] = target: α4β7 integrin (Homo sapiens (Human), UniProt P13612+P26010); experiment: Integrin Adhesion Assay: Protocol 4 (MAdCAM-coated plate, RPMI-8866 cells with stable LOF mutation of the ITGB1 gene); format: cell-based; conditions: Protocol 4; RPMI-8866 cells with LOF mutation of ITGB1, MAdCAM; read-out: Mean IC50 α4β7 KO
Chain of α4β7 integrin (P13612 34-1032): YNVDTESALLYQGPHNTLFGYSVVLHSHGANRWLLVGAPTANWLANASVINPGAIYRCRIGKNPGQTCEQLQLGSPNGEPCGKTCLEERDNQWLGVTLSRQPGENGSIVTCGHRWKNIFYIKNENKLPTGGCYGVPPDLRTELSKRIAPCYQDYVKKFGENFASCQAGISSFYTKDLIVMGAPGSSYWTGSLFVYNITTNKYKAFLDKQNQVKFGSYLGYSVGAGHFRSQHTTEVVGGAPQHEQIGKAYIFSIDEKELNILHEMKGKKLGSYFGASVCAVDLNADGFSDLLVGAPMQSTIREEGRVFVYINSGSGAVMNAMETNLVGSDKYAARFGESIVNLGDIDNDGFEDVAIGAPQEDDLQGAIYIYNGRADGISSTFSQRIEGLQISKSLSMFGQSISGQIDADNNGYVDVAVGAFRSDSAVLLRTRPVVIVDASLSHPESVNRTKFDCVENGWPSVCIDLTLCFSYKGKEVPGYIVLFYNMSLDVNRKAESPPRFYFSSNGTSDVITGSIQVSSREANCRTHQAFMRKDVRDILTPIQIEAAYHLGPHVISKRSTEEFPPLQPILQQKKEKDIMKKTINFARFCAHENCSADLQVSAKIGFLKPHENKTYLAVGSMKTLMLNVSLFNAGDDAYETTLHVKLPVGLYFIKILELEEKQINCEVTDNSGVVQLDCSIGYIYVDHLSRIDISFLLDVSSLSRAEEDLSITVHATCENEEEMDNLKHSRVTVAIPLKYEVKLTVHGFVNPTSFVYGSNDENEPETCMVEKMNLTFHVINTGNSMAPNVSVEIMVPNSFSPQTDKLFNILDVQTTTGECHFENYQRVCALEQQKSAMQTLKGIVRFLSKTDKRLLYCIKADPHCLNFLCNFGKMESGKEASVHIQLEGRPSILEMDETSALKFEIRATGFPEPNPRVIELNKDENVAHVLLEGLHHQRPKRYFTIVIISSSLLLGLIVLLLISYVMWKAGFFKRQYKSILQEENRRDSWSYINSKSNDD
Chain of α4β7 integrin (P26010 20-798): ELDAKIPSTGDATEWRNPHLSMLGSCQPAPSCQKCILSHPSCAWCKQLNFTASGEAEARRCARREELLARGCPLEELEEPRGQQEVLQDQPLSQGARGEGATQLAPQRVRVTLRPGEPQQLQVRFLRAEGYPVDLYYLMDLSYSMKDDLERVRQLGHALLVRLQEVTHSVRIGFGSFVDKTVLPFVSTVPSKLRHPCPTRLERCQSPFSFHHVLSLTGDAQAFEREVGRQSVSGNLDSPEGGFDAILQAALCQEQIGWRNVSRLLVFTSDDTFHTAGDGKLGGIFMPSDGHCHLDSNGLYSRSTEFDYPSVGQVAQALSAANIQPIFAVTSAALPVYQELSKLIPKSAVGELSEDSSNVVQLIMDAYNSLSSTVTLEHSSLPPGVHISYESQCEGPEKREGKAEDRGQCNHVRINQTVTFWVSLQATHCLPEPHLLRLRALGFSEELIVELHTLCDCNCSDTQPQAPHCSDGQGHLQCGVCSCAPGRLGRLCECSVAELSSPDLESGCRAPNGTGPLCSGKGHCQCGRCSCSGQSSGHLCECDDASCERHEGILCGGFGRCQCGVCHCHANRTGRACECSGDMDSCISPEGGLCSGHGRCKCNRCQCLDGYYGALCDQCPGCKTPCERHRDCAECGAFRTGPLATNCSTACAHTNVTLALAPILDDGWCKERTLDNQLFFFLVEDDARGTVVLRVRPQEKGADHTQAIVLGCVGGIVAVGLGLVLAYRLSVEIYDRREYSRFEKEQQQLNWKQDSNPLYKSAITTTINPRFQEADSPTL
Summary of the method: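 RPMI-8866 cells with CRISPR/Cas9 knockout of ITGB1 (2×10^6/mL) were added to MAdCAM-coated wells with compound (1% DMSO) in HEPES/NaCl buffer with 1 mM MnCl2, 0.1 mM CaCl2 and 1% BSA, then incubated 1 h at 37 °C. After four washes, adherent cells were quantified by CellTiter-Glo luminescence. Percent inhibition versus DMSO and control compound was fitted to 4-parameter curves.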

[2] = target: α4β1 integrin (Homo sapiens (Human), UniProt P05556+P13612); experiment: Integrin Adhesion Assay: Protocol 5 (VCAM-coated plate, RPMI-8866 cells with stable LOF mutation of the ITGB7 gene); format: cell-based; conditions: Protocol 5; RPMI-8866 cells with LOF mutation of ITGB7, VCAM; read-out: Mean IC50 α4β1 KO
Chain of α4β1 integrin (P13612 34-1032): as the sequence (P13612 34-1032) above
Chain of α4β1 integrin (P05556 21-798): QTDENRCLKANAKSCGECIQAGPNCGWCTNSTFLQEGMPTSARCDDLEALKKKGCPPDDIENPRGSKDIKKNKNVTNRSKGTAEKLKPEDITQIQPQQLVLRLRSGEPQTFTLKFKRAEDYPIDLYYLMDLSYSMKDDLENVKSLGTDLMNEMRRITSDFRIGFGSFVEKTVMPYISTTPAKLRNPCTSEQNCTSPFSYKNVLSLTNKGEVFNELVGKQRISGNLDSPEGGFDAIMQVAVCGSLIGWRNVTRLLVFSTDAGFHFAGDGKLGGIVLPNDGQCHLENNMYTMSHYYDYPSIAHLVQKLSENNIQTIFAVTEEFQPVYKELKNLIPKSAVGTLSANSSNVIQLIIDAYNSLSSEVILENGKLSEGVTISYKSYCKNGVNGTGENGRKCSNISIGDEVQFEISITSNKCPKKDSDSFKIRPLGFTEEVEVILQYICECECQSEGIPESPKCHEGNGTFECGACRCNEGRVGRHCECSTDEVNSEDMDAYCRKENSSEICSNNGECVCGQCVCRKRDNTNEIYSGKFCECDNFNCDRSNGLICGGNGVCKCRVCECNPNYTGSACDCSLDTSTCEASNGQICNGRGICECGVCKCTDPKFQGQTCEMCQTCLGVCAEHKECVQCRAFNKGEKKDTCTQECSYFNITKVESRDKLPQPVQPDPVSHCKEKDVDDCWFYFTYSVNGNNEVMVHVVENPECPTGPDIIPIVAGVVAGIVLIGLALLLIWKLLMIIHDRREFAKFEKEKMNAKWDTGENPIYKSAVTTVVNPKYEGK
Summary of the method: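 RPMI-8866 B cells with CRISPR/Cas9 ITGB7 knockout (clonal, verified by flow cytometry) adhered to VCAM-coated wells for 1 h at 37° C in HEPES/NaCl buffer with 1 mM MnCl2, 0.1 mM CaCl2, 1% BSA, 1% DMSO. Bound cells quantified by CellTiter-Glo luminescence after washing; % inhibition versus DMSO and control, 4-parameter fit.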

pIC50 [1]	pIC50 [2]	SMILES
7.00 to 8.00	< 6.00	O=C(O)[C@H](Cc1cccc2c(-c3ncccc3CCN3CCCCC3)cccc12)NC(=O)C1(C(F)(F)F)CCN(CC(F)(F)F)CC1 [Compound 965]
> 8.00	6.00 to 7.00	COc1ccc(CCN2CCC(F)CC2)c(OC)c1-c1cccc2c(C[C@H](NC(=O)C3(C(F)(F)F)CCN(CC(F)(F)F)CC3)C(=O)O)cccc12 [Compound 966]
> 8.00	6.00 to 7.00	COc1ccc(CCN2CCC(C)(C)CC2)c(OC)c1-c1cccc2c(C[C@H](NC(=O)C3(C(F)(F)F)CCN(CC(F)(F)F)CC3)C(=O)O)cccc12 [Compound 967]
> 8.00	6.00 to 7.00	COc1cccc(CCN2CCC(F)CC2)c1-c1cccc2c(C[C@H](NC(=O)C3(C(F)(F)F)CCN(CC(F)(F)F)CC3)C(=O)O)cccc12 [Compound 968]
> 8.00	< 6.00	COc1cccc(CCN2CCC[C@H](F)C2)c1-c1cccc2c(C[C@H](NC(=O)C3(C(F)(F)F)CCN(CC(F)F)CC3)C(=O)O)cccc12 [Compound 969]
> 8.00	6.00 to 7.00	COc1cccc(CCN2CCC[C@@H](F)C2)c1-c1cccc2c(C[C@H](NC(=O)C3(C(F)(F)F)CCN(CC(F)F)CC3)C(=O)O)cccc12 [Compound 970]
> 8.00	6.00 to 7.00	COc1cccc(CCN2CCC(C)C(F)(F)CC2)c1-c1cccc2c(C[C@H](NC(=O)C3(C(F)(F)F)CCN(CC(F)F)CC3)C(=O)O)cccc12 (some centres unmarked) [Compound 971]
> 8.00	6.00 to 7.00	COc1cccc(CCN2CCC(C)C(F)(F)CC2)c1-c1cccc2c(C[C@H](NC(=O)C3(C(F)(F)F)CCN(CC(F)(F)F)CC3)C(=O)O)cccc12 (some centres unmarked) [Compound 972]
7.00 to 8.00	< 6.00	COc1cccc(CCN2CCC(c3ccccc3)CC2)c1-c1cccc2c(C[C@H](NC(=O)C3(C(F)(F)F)CCN(CC(F)(F)F)CC3)C(=O)O)cccc12 [Compound 973]
7.00 to 8.00	< 6.00	COc1cccc(CCN2CCC(F)(F)CC2)c1-c1cccc2c(C[C@H](NC(=O)C3(C(F)(F)F)CCN(CC(F)(F)F)CC3)C(=O)O)cccc12 [Compound 974]
> 8.00	6.00 to 7.00	COc1cccc(CCN2CCC(c3ccccc3)CC2)c1-c1cccc2c(C[C@H](NC(=O)C3(C(F)(F)F)CCN(CC(F)F)CC3)C(=O)O)cccc12 [Compound 975]
> 8.00	6.00 to 7.00	COc1cccc(CCN2CCC(F)(F)CC2)c1-c1cccc2c(C[C@H](NC(=O)C3(C(F)(F)F)CCN(CC(F)F)CC3)C(=O)O)cccc12 [Compound 976]
> 8.00	< 6.00	O=C(O)[C@H](Cc1cccc2c(-c3ncc(CCN4CCC[C@@H](F)C4)c4ccccc34)cccc12)NC(=O)C1(C(F)(F)F)CCN(CC(F)(F)F)CC1 [Compound 977]
> 8.00	< 6.00	O=C(O)[C@H](Cc1cccc2c(-c3ncc(CCN4CCC[C@H](F)C4)c4ccccc34)cccc12)NC(=O)C1(C(F)(F)F)CCN(CC(F)(F)F)CC1 [Compound 978]
7.00 to 8.00	< 6.00	O=C(O)[C@H](Cc1cccc2c(-c3ncc(CCN4CCC(F)(F)CC4)c4ccccc34)cccc12)NC(=O)C1(C(F)(F)F)CCN(CC(F)(F)F)CC1 [Compound 980]
> 8.00	< 6.00	CC(C)(C)C1CCN(CCc2cnc(-c3cccc4c(C[C@H](NC(=O)C5(C(F)(F)F)CCN(CC(F)(F)F)CC5)C(=O)O)cccc34)c3ccccc23)CC1 [Compound 981]
> 8.00	< 6.00	O=C(O)[C@H](Cc1cccc2c(-c3nccc4cccc(CCN5CCCCC5)c34)cccc12)NC(=O)C1(C(F)(F)F)CCN(CC(F)(F)F)CC1 [Compound 982]
> 8.00	< 6.00	COc1cc(CCN2CCCCC2)cnc1-c1cccc2c(C[C@H](NC(=O)C3(C(F)(F)F)CCN(CC(F)(F)F)CC3)C(=O)O)cccc12 [Compound 983]
> 8.00	6.00 to 7.00	COc1cccc(CCN2CCCC(C)(C)C2)c1-c1cccc2c(C[C@H](NC(=O)C3(C(F)(F)F)CCN(CC(F)F)CC3)C(=O)O)cccc12 [Compound 984]
> 8.00	6.00 to 7.00	COc1cccc(CCN2CCC[C@@H](F)C2)c1-c1cccc2c(C[C@H](NC(=O)C3(C(F)(F)F)CCN(CC(F)(F)F)CC3)C(=O)O)cccc12 [Compound 985]
> 8.00	6.00 to 7.00	CC1(C)CCN(Cc2ccc(-c3cccc4c(C[C@H](NC(=O)C5(C(F)(F)F)CCN(CC(F)(F)F)CC5)C(=O)O)cccc34)c3cnccc23)CC1 [Compound 986]
> 8.00	< 6.00	O=C(O)[C@H](Cc1cccc2c(-c3ccc(CN4CCC(F)CC4)c4ccncc34)cccc12)NC(=O)C1(C(F)(F)F)CCN(CC(F)(F)F)CC1 [Compound 987]
7.00 to 8.00	< 6.00	O=C(O)[C@H](Cc1cccc2c(-c3nc(CN4CCCCC4)cc4ccccc34)cccc12)NC(=O)C1(C(F)(F)F)CCN(CC(F)(F)F)CC1 [Compound 988]

pIC50 [1]	pIC50 [2]	SMILES
7.00 to 8.00	< 6.00	O=C(O)[C@H](Cc1cccc2c(-c3ccc(CN4CCCC(F)C4)c4ccncc34)cccc12)NC(=O)C1(C(F)(F)F)CCN(CC(F)(F)F)CC1 (some centres unmarked) [Compound 989]
> 8.00	< 6.00	CN1CCC(Cc2ccc3ccnc(-c4cccc5c(C[C@H](NC(=O)C6(C(F)(F)F)CCN(CC(F)(F)F)CC6)C(=O)O)cccc45)c3c2)CC1 [Compound 990]
6.00 to 7.00	< 6.00	O=C(O)[C@H](Cc1cccc2c(-c3cccc4cc(CN5CCCCC5)ncc34)cccc12)NC(=O)C1(C(F)(F)F)CCN(CC(F)(F)F)CC1 [Compound 991]
> 8.00	6.00 to 7.00	COc1cc2c(c(OC)c1-c1cccc3c(C[C@H](NC(=O)C4(C(F)(F)F)CCN(CC(F)(F)F)CC4)C(=O)O)cccc13)CN(C1CCCCC1)CC2 [Compound 993]
7.00 to 8.00	< 6.00	COC(=O)[C@H](Cc1cccc2c(-c3nc(CN4CCCCC4)cc4ccncc34)cccc12)NC(=O)C1(C(F)(F)F)CCN(CC(F)(F)F)CC1 [Compound 994]
7.00 to 8.00	6.00 to 7.00	COc1ccc2c(c1-c1cccc3c(C[C@H](NC(=O)c4c(C)cccc4F)C(=O)O)cccc13)CN(CC(F)F)CC2 [Compound 995]
7.00 to 8.00	< 6.00	COc1cc(CN2CCC(C(F)(F)F)CC2)cnc1-c1cccc2c(C[C@H](NC(=O)c3c(C)cccc3F)C(=O)O)cccc12 [Compound 996]
7.00 to 8.00	< 6.00	COc1ccc2c(c1-c1cccc3c(C[C@H](NC(=O)c4c(C)cccc4F)C(=O)O)cccc13)CCN(CC(F)(F)F)C2 [Compound 997]
> 8.00	6.00 to 7.00	COc1ccc2c(c1-c1cccc3c(C[C@H](NC(=O)c4c(C)cccc4F)C(=O)O)cccc13)CCN(C)C2 [Compound 998]
> 8.00	6.00 to 7.00	COc1cccc(OCCN2CCCCC2)c1-c1cccc2c(C[C@H](NC(=O)c3c(C)cccc3F)C(=O)O)cccc12 [Compound 999]
> 8.00	6.00 to 7.00	CCOCc1cc(CN2CCCCC2)c(-c2cccc3c(C[C@H](NC(=O)c4c(C)cccc4F)C(=O)O)cccc23)c(OC)c1 [Compound 1000]
7.00 to 8.00	< 6.00	COc1ccc(CCN2CCCCC2)cc1-c1cccc2c(C[C@H](NC(=O)c3c(C)cccc3F)C(=O)O)cccc12 [Compound 1001]
6.00 to 7.00	< 6.00	Cc1cccc(F)c1C(=O)N[C@@H](Cc1cccc2c(-c3cccc4c3OCC4)cccc12)C(=O)O [Compound 1002]
7.00 to 8.00	< 6.00	COc1ccc2c(c1-c1cccc3c(C[C@H](NC(=O)c4c(C)cccc4F)C(=O)O)cccc13)CCN(CC(F)F)C2 [Compound 1003]
> 8.00	6.00 to 7.00	COc1ccc(CCN2CCCCC2)c(C(F)(F)F)c1-c1cccc2c(C[C@H](NC(=O)c3c(C)cccc3F)C(=O)O)cccc12 [Compound 1004]
7.00 to 8.00	< 6.00	COc1cc(CN2CCC(C)(C)CC2)cnc1-c1cccc2c(C[C@H](NC(=O)c3c(C)cccc3F)C(=O)O)cccc12 [Compound 1005]
7.00 to 8.00	6.00 to 7.00	COc1cc2c(cc1-c1cccc3c(C[C@H](NC(=O)c4c(C)cccc4F)C(=O)O)cccc13)CN(CC(F)F)CC2 [Compound 1006]
> 8.00	6.00 to 7.00	CCOCc1cc(OC)c(-c2cccc3c(C[C@H](NC(=O)c4c(C)cccc4F)C(=O)O)cccc23)cc1CN1CCCCC1 [Compound 1008]
> 8.00	< 6.00	COc1cc(C(F)(F)F)cc(CN2CCCCC2)c1-c1cccc2c(C[C@H](NC(=O)c3c(C)cccc3F)C(=O)O)cccc12 [Compound 1009]
> 8.00	< 6.00	COc1c(CN(C)C)ccc(Cl)c1-c1cccc2c(C[C@H](NC(=O)c3c(C)cccc3F)C(=O)O)cccc12 [Compound 1011]
> 8.00	< 6.00	COc1ccc(CN2CCCC(F)C2)c(OC)c1-c1cccc2c(C[C@H](NC(=O)c3c(C)cccc3F)C(=O)O)cccc12 (some centres unmarked) [Compound 1012]
> 8.00	6.00 to 7.00	COc1c(CN2CCCCC2)ccc(Cl)c1-c1cccc2c(C[C@H](NC(=O)c3c(C)cccc3F)C(=O)O)cccc12 [Compound 1013]
> 8.00	6.00 to 7.00	COc1cccc(CN2CCCCC2)c1-c1cccc2c(C[C@H](NC(=O)c3c(C)cccc3F)C(=O)O)cccc12 [Compound 1014]
